Reference: US8710233B2 (Gruenenthal GmbH, priority 2005, dated 2014)
Like-named read-outs stand apart in the source and are kept apart here.

What was measured:
Assay type in all cases: cell-based
[1] = target: T1, vanilloid receptor 1 (VR1/TRPV1) of the rat species (Rattus norvegicus, UniProt O35433); assay: FLIPR Ca2+ influx assay on rat dorsal root ganglia cells (pharmacological method I); conditions: table 4, capsaicin
T1 construct: The spinal column is removed from decapitated rats; from tissue; host or cells: primary cells dissociated from rat dorsal root ganglia
Outline: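 Primary rat dorsal root ganglion cells loaded with 2 μM Fluo-4, Ca2+ influx read on FLIPR as peak fluorescence. Triplicates, at least 3 independent experiments.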

vanilloid receptor (VR1) = target: T2, vanilloid receptor (VR1) (Homo sapiens, UniProt Q8NER1); assay: FLIPR Ca2+ influx assay on CHO K1 cells transfected with the VR1 gene (pharmacological method II); conditions: table 4; capsaicin; read-out: Ki (human) Cap.
T2 construct: expressed in transfected cells; host or cells: CHO K1 cells (ECACC), stably transfected

VR1/TRPV1 receptor = VR1/TRPV1 receptor (Homo sapiens, UniProt Q8NER1); assay: IC50 (human) after pH stimulus; conditions: for IC50: table 4; for inhibition at 1 µM: ne = no effect
[2] = read-out: inhibition in percent, IC50 (human) after pH stimulus

T2 sequence (Q8NER1 whole entry): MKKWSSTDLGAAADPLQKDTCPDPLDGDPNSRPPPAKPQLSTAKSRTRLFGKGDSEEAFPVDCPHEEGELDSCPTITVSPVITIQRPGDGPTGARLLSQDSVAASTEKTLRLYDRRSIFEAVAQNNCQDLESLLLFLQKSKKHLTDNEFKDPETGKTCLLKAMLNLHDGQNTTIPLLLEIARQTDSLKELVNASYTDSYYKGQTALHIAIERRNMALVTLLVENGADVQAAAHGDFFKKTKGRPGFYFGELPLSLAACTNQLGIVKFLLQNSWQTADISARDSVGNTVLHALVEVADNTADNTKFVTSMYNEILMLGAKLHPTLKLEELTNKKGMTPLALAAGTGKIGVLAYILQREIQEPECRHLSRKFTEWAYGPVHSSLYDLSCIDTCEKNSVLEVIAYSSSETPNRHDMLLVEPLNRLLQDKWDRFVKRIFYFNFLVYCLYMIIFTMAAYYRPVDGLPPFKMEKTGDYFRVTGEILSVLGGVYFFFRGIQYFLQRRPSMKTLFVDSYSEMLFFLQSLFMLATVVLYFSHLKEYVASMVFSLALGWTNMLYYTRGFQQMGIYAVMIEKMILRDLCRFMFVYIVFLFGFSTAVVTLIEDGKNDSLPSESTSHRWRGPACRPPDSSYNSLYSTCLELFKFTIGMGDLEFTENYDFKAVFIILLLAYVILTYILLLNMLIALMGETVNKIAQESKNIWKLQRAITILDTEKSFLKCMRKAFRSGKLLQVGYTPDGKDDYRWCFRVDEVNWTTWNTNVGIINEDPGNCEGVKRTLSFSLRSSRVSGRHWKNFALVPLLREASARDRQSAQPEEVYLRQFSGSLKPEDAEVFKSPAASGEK
VR1/TRPV1 receptor, sequence (Q8NER1 whole entry): as above
T1 sequence (O35433 whole entry): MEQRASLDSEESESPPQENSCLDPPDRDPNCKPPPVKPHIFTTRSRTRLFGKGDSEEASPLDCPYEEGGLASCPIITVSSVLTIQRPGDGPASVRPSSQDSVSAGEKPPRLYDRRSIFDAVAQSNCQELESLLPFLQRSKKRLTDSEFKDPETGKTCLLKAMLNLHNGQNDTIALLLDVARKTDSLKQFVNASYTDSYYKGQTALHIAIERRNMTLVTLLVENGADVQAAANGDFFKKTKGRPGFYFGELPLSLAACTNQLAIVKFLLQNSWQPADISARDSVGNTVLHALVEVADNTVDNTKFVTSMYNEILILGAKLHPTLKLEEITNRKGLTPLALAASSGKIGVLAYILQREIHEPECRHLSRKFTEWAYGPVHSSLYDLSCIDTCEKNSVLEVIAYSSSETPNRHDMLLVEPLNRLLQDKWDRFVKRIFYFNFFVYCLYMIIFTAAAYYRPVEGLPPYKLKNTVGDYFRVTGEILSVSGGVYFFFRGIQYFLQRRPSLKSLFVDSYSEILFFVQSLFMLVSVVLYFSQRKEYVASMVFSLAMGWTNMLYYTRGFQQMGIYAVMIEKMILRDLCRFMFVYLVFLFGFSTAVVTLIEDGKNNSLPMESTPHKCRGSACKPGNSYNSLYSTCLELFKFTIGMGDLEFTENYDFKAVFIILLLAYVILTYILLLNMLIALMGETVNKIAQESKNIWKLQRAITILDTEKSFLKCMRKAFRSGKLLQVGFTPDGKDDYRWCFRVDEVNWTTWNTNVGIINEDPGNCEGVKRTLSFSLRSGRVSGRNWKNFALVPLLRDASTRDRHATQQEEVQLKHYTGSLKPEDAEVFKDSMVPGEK

Compound	Ki ([1]; read-out: Ki (rat) Cap.)	Ki (vanilloid receptor (VR1))	IC50 (VR1/TRPV1 receptor)	inhibition at 1 µM (VR1/TRPV1 receptor; [2])	inhibition at 10 µM (VR1/TRPV1 receptor; [2])	inhibition at 0.1 µM (VR1/TRPV1 receptor; [2])	Ki ([1]; Ki (rat) Cap.)	inhibition at 25 µM (VR1/TRPV1 receptor; @ 25 μM, read-out: inhibition in percent, IC50 (human) after pH stimulus)
CC(C(=O)NCc1ccc(C(F)(F)F)nc1N1CCN(c2ccc(C(F)(F)F)cc2)CC1)c1ccc(NS(C)(=O)=O)c(F)c1 (centres unmarked) [Example 222, 2-(3-fluoro-4-methylsulfonamido-phenyl)-N-{6-trifluoromethyl-2-[4-(4-trifluoromethyl-phenyl)-piperazin-1-yl]-pyridin-3-ylmethyl}propionamide]	2.4 nM	3.4 nM	39.2 nM					
CC(C(=O)NCc1ccc(C(F)(F)F)nc1N1CCC(OC(=O)C(C)(C)C)CC1)c1ccc(NS(C)(=O)=O)c(F)c1 (centres unmarked) [Example 226, 2,2-dimethyl-propionic acid 3′-{[2-(3-fluoro-4-methylsulfonamido-phenyl)-propionylamino]-methyl}-6′-trifluoromethyl-3,4,5,6-tetrahydro-2H-[1,2′]bipyridinyl-4-yl ester]	1.5 nM	2 nM	45.2 nM					
CC(C(=O)NCc1ccc(C(F)(F)F)nc1N1CCC(=O)CC1)c1ccc(NS(C)(=O)=O)c(F)c1 (centres unmarked) [Example 227]	348 nM	91 nM		7%	51%			
CCOC1CCN(c2nc(C(F)(F)F)ccc2CNC(=O)C(C)c2ccc(NS(C)(=O)=O)c(F)c2)CC1 (centres unmarked) [Example 228, N-(4-ethoxy-6′-trifluoromethyl-3,4,5,6-tetrahydro-2H-[1,2′]bipyridinyl-3′-ylmethyl)-2-(3-fluoro-4-methylsulfonamido-phenyl)-propionamide]	2.5 nM	1.3 nM	612 nM					
CCC1CCN(c2cc(C(F)(F)F)ccc2CNC(=O)C(C)c2ccc(NS(C)(=O)=O)c(F)c2)CC1 (centres unmarked) [Example 229, N-[2-(4-ethyl-piperidin-1-yl)-4-trifluoromethyl-benzyl]-2-(3-fluoro-4-methylsulfonamido-phenyl)-propionamide]	0.7 nM	0.7 nM	17.7 nM					
CC(C(=O)NCc1ccc(C(F)(F)F)cc1N1CCC(C(F)(F)F)CC1)c1ccc(NS(C)(=O)=O)c(F)c1 (centres unmarked) [Example 230, 2-(3-fluoro-4-methylsulfonamido-phenyl)-N-[4-trifluoromethyl-2-(4-trifluoromethyl-piperidin-1-yl)-benzyl]-propionamide]	0.6 nM	0.4 nM	20.1 nM					
CC(C(=O)NCc1ccc(C(F)(F)F)cc1N1CCC(Cc2ccccc2)CC1)c1ccc(NS(C)(=O)=O)c(F)c1 (centres unmarked) [Example 231, N-[2-(4-benzyl-piperidin-1-yl)-4-trifluoromethyl-benzyl]-2-(3-fluoro-4-methylsulfonamido-phenyl)-propionamide]	0.8 nM	1.4 nM	37.6 nM					
CC(C(=O)NCc1ccc(C(C)(C)C)nc1OC1CCCCC1)c1ccc(NS(C)(=O)=O)c(F)c1 (centres unmarked) [Example 233, N-(6-tert-butyl-2-cyclohexyloxy-pyridin-3-ylmethyl)-2-(3-fluoro-4-methylsulfonamido-phenyl)-propionamide]	1.4 nM	2.5 nM		50%	63%			
CCCCOc1nc(C(C)(C)C)ccc1CNC(=O)C(C)c1ccc(NS(C)(=O)=O)c(F)c1 (centres unmarked) [Example 235, N-(2-butoxy-6-tert-butyl-pyridin-3-ylmethyl)-2-(3-fluoro-4-methylsulfonamido-phenyl)-propionamide]	0.6 nM	0.9 nM	55 nM					
CCCCCCOc1nc(C(C)(C)C)ccc1CNC(=O)C(C)c1ccc(NS(C)(=O)=O)c(F)c1 (centres unmarked) [Example 236, N-(6-tert-butyl-2-hexyloxy-pyridin-3-ylmethyl)-2-(3-fluoro-4-methylsulfonamido-phenyl)-propionamide]	1.4 nM	2.7 nM		76%	69%			
CC(C(=O)NCc1ccc(C(C)(C)C)nc1OCc1ccccc1)c1ccc(NS(C)(=O)=O)c(F)c1 (centres unmarked) [Example 237, N-(2-benzyloxy-6-tert-butyl-pyridin-3-ylmethyl)-2-(3-fluoro-4-methylsulfonamido-phenyl)-propionamide]	2 nM	4.4 nM		70%				
CC(C(=O)NCc1ccc(C(F)(F)F)cc1OC1CCCCC1)c1ccc(NS(C)(=O)=O)c(F)c1 (centres unmarked) [Example 238, N-(2-cyclohexyloxy-4-trifluoromethyl-benzyl)-2-(3-fluoro-4-methylsulfonamido-phenyl)-propionamide]	0.6 nM	0.7 nM		55%		39%		
CC(C(=O)NCc1ccc(C(C)(C)C)nc1N1CCCC1)c1ccc(NS(C)(=O)=O)c(F)c1 (centres unmarked) [Example 240, N-(6-tert-butyl-2-pyrrolidin-1-yl-pyridin-3-ylmethyl)-2-(3-fluoro-4-methansulfonylamino-phenyl)-propionamide]	5.3 nM	1.2 nM		43%		12%		
CC1CCN(c2nc(C(C)(C)C)ccc2CNC(=O)C(C)c2ccc(NS(C)(=O)=O)c(F)c2)CC1 (centres unmarked) [Example 241, N-(6′-tert-butyl-4-methyl-3,4,5,6-tetrahydro-2H-[1,2′]bipyridinyl-3′-ylmethyl)-2-(3-fluoro-4-methylsulfonamido-phenyl)-propionamide]	0.5 nM	1.9 nM		79%		34%		
CCc1ccc(COc2nc(C(F)(F)F)ccc2CNC(=O)C(C)c2ccc(NS(C)(=O)=O)c(F)c2)cc1 (centres unmarked) [Example 242, N-[2-(4-ethyl-benzyloxy)-6-trifluoromethyl-pyridin-3-ylmethyl]-2-(3-fluoro-4-methylsulfonamido-phenyl)-propionamide]		3.7 nM	165 nM				1.2 nM	
CCCCc1ccc(COc2nc(C(F)(F)F)ccc2CNC(=O)C(C)c2ccc(NS(C)(=O)=O)c(F)c2)cc1 (centres unmarked) [Example 243, N-[2-(4-butyl-benzyloxy)-6-trifluoromethyl-pyridin-3-ylmethyl]-2-(3-fluoro-4-methylsulfonamido-phenyl)-propionamide]	5.1 nM	16 nM	337 nM					
CC(C(=O)NCc1ccc(C(F)(F)F)nc1OCc1ccc(C(C)(C)C)cc1)c1ccc(NS(C)(=O)=O)c(F)c1 (centres unmarked) [Example 244, N-[2-(4-tert-butyl-benzyloxy)-6-trifluoromethyl-pyridin-3-ylmethyl]-2-(3-fluoro-4-methylsulfonamido-phenyl)-propionamide]		2.1 nM	182 nM				1.1 nM	
CC(C(=O)NCc1ccc(C(F)(F)F)nc1OC1Cc2ccccc2C1)c1ccc(NS(C)(=O)=O)c(F)c1 (centres unmarked) [Example 245, 2-(3-fluoro-4-methylsulfonamido-phenyl)-N-[2-(indan-2-yloxy)-6-trifluoromethyl-pyridin-3-ylmethyl]-propionamide]		2.7 nM		74%		21%	1.7 nM	
Cc1ccc(N2CCN(c3cc(C(F)(F)F)ccc3CNC(=O)C(C)c3ccc(NS(C)(=O)=O)c(F)c3)CC2)cc1 (centres unmarked) [Example 246, 2-(3-fluoro-4-methylsulfonamido-phenyl)-N-[2-(4-p-tolyl-piperazin-1-yl)-4-trifluoromethyl-benzyl]-propionamide]	0.5 nM	0.7 nM	87 nM					
Cc1cccc(N2CCN(c3cc(C(F)(F)F)ccc3CNC(=O)C(C)c3ccc(NS(C)(=O)=O)c(F)c3)CC2)c1 (centres unmarked) [Example 247, 2-(3-fluoro-4-methylsulfonamido-phenyl)-N-[2-(4-m-tolyl-piperazin-1-yl)-4-trifluoromethyl-benzyl]-propionamide]	0.5 nM	1.8 nM		69%		36%		
CC(C(=O)NCc1ccc(C(F)(F)F)cc1N1CCN(c2ccc(C(F)(F)F)cc2)CC1)c1ccc(NS(C)(=O)=O)c(F)c1 (centres unmarked) [Example 248, 2-(3-fluoro-4-methylsulfonamido-phenyl)-N-{4-trifluoromethyl-2-[4-(4-trifluoromethyl-phenyl)-piperazin-1-yl]-benzyl}-propionamide]	0.9 nM	3.9 nM			66%			74%
COc1ccc(N2CCN(c3cc(C(F)(F)F)ccc3CNC(=O)C(C)c3ccc(NS(C)(=O)=O)c(F)c3)CC2)cc1 (centres unmarked) [Example 249, 2-(3-fluoro-4-methylsulfonamido-phenyl)-N-{2-[4-(4-methoxy-phenyl)-piperazin-1-yl]-4-trifluoromethyl-benzyl}-propionamide]	0.2 nM	1.6 nM		70%		31%		
CC(C(=O)NCc1ccc(C(F)(F)F)nc1-c1ccc(Cl)c(Cl)c1)c1ccc(NS(C)(=O)=O)c(F)c1 (centres unmarked) [Example 250, N-[2-(3,4-dichloro-phenyl)-6-trifluoromethyl-pyridin-3-ylmethyl]-2-(3-fluoro-4-methylsulfonamido-phenyl)-propionamide]	0.9 nM	0.9 nM		51%	68%			
CC(C(=O)NCc1ccc(C(F)(F)F)nc1N1CCC2(CC1)CC(C(C)(C)C)=NO2)c1ccc(NS(C)(=O)=O)c(F)c1 (centres unmarked) [Example 251, N-[2-(3-tert-butyl-1-oxa-2,8-diaza-spiro[4.5]dec-2-en-8-yl)-6-trifluoromethyl-pyridin-3-ylmethyl]-2-(3-fluoro-4-methylsulfonamido-phenyl)-propionamide]	8.7 nM	3.8 nM	281 nM					
